# Measurements published in ChEMBL document CHEMBL3616406, “Soluble epoxide hydrolase inhibitory activity of anthraquinone components from Aloe” (Bioorg Med Chem, 2015).
# Activity calls are given as the source filed them. The rule behind the calls is not given here.
# Experiments:
# [1] = target: T1, Bifunctional epoxide hydrolase 2 (Homo sapiens) (UniProt P34913); assay: Non-competitive inhibition of sEH (unknown origin) using PHOME as substrate assessed as formation of 6-methoxy-2-naphthaldehyde measured during 30 mins by Lineweaver-Burk plot analysis
# T1 sequence (whole entry): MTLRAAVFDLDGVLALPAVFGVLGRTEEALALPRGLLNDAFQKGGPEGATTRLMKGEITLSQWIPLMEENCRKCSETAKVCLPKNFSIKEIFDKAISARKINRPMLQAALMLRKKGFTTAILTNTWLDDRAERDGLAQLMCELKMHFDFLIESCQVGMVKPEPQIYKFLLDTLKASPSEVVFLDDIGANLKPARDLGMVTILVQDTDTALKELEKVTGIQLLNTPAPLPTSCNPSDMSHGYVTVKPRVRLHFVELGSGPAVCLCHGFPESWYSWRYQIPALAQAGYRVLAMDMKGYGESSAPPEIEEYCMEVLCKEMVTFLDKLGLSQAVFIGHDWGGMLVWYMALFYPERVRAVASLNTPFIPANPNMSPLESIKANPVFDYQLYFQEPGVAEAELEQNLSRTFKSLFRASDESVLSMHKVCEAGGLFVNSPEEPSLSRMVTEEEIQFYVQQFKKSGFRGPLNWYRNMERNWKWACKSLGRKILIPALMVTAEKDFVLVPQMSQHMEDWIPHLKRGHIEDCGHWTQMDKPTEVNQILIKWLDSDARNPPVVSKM
# [2] = target: T2, Bifunctional epoxide hydrolase 2 (Homo sapiens, UniProt P34913); assay: Non-competitive inhibition of sEH (unknown origin) using PHOME as substrate assessed as formation of 6-methoxy-2-naphthaldehyde measured during 30 mins by Dixon plot analysis
# T2 sequence (P34913 whole entry): T1 sequence (whole entry)
# [3] = target: T2, Bifunctional epoxide hydrolase 2; assay: Inhibition of sEH (unknown origin) using PHOME as substrate assessed as formation of 6-methoxy-2-naphthaldehyde measured during 1 hr by fluorescence photometric analysis
# [4] = target: T1, Bifunctional epoxide hydrolase 2 (Homo sapiens); assay: Inhibition of sEH (unknown origin) using PHOME as substrate assessed as formation of 6-methoxy-2-naphthaldehyde at 100 uM measured during 1 hr by fluorescence photometric analysis relative to control
# [5] = target: T2, Bifunctional epoxide hydrolase 2; assay: Mixed-type inhibition of sEH (unknown origin) using PHOME as substrate assessed as formation of 6-methoxy-2-naphthaldehyde measured during 30 mins by Dixon plot analysis
# [6] = target: T1, Bifunctional epoxide hydrolase 2 (Homo sapiens); assay: Mixed-type inhibition of sEH (unknown origin) using PHOME as substrate assessed as formation of 6-methoxy-2-naphthaldehyde measured during 30 mins by Lineweaver-Burk plot analysis
SMILES,inhibition [1],Ki [2] [µM],IC50 [3] [µM],inhibition [4] [%],Ki [5] [µM],inhibition [6]
O=C1c2cc(CO)cc(O)c2C(=O)c2c1ccc([C@]1([C@@H]3O[C@H](CO)[C@@H](O)[C@H](O)[C@H]3O)c3cccc(O)c3C(=O)c3c(O)cc(CO)cc31)c2O,Active,15.5,4.1,93.1,–,–
O=C1c2cccc(O)c2C(=O)c2c(O)cc(CO)cc21 [ALOE-EMODIN],Active,52.2,26.8,79.9,–,–
O=C1c2c(O)cccc2[C@@H]([C@@H]2O[C@H](CO)[C@@H](O)[C@H](O)[C@H]2O)c2cc(CO)cc(O)c21,–,–,41.1,62.8,27.8,Active
C[C@@H]1O[C@@H](OCc2cc(O)c3c(c2)[C@H]([C@@H]2O[C@H](CO)[C@@H](O)[C@H](O)[C@H]2O)c2cccc(O)c2C3=O)[C@H](O)[C@H](O)[C@H]1O,–,–,20.2,86.9,2,Active
C[C@@H]1O[C@@H](OCc2cc(O)c3c(c2)[C@](O)([C@@H]2O[C@H](CO)[C@@H](O)[C@H](O)[C@H]2O)c2cccc(O)c2C3=O)[C@H](O)[C@H](O)[C@H]1O,–,–,12.5,109,10.4,Active
O=C1c2c(O)cccc2C([C@@H]2O[C@H](CO)[C@@H](O)[C@H](O)[C@H]2O)c2cc(CO)cc(O)c21 (some centres not stated) [ALOIN],–,–,37.4,73.9,57.3,Active
C[C@@H]1O[C@@H](OCc2cc(O)c3c(c2)[C@H]([C@@H]2OC[C@@H](O)[C@H](O)[C@H]2O)c2cccc(O)c2C3=O)[C@H](O)[C@H](O)[C@H]1O,Active,0.8,13.8,87,–,–
Cc1cc(O)c2c(c1)[C@H]([C@@H]1O[C@H](CO)[C@@H](O)[C@H](O)[C@H]1O)c1cccc(O)c1C2=O,–,–,15.6,90.5,0.2,Active
